Measurements reported in US11220504B2, “Pyrrolo[3,2-d] pyrimidine derivatives for the treatment of viral infections and other diseases” (JANSSEN SCIENCES IRELAND UNLIMITED COMPANY, priority 2012, dated 2022).

Tests used:
[1] = biological target: T1, human TLR7 (Homo sapiens, UniProt Q9NYK1); assay: TLR7 cellular reporter assay (HEK293, NFκB-luc); type: cell-based; settings: HEK293 cells transfected with CMV-TLR7 and NFκB-luc, 6 hours incubation; lowest effective concentration
T1 construct: expressed in transfected cells; host or cells: HEK293 cells, transient transfection with CMV-TLR7 plasmid and NFκB-luc plasmid
T1 sequence (Q9NYK1 27-1049): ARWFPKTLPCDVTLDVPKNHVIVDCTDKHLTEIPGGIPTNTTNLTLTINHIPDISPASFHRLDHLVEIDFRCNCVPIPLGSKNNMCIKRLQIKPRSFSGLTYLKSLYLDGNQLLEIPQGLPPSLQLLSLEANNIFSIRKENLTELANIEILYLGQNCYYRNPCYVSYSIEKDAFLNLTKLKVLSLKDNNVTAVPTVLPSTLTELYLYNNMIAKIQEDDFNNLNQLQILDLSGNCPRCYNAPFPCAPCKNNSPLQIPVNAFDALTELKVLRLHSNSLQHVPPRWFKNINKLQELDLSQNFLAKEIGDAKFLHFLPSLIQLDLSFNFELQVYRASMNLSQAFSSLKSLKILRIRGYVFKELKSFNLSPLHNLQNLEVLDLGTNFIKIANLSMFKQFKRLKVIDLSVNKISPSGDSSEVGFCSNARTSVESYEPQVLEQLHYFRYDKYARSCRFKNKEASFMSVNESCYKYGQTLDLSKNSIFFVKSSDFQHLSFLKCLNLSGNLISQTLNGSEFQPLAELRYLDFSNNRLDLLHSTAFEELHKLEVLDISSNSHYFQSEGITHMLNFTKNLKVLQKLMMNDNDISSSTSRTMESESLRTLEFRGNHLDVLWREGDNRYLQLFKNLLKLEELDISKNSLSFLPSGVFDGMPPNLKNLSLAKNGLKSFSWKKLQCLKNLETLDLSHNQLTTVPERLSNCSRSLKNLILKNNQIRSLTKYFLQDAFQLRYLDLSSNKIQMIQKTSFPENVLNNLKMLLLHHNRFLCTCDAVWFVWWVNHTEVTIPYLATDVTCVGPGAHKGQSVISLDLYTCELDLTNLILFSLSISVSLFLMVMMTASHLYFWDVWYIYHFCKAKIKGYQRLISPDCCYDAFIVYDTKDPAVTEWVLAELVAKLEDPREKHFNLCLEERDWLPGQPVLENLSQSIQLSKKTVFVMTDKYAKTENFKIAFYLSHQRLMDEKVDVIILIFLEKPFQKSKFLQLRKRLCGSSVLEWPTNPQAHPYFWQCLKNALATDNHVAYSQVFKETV
Experimental: (§1) The ability of compounds to activate human TLR7 and/or TLR8 was assessed in a cellular reporter assay using HEK293 cells transiently transfected with a TLR7 or TLR8 expression vector and NFκB-luc reporter construct.
(§2) Briefly, HEK293 cells were grown in culture medium (DMEM supplemented with 10% FCS and 2 mM Glutamine). […] Thirty microliters of cells were then dispensed into each well in 384-well plates, where 10 μL of compound in 4% DMSO was already present. Following 6 hours incubation at 37° C., 5% CO2, the luciferase activity was determined by adding 15 μL of Steady Lite Plus substrate (Perkin Elmer) to each well and readout performed on a ViewLux ultraHTS microplate imager (Perkin Elmer). Dose response curves were generated from measurements performed in quadruplicates.

[2] = biological target: T2, human TLR8 (Homo sapiens, UniProt Q9NR97); assay: TLR8 cellular reporter assay (HEK293, NFκB-luc); type: cell-based; settings: HEK293 cells transfected with CMV-TLR8 and NFκB-luc, 6 hours incubation; lowest effective concentration
T2 construct: expressed in transfected cells; host or cells: HEK293 cells, transient transfection with TLR8 plasmid and NFκB-luc plasmid
T2 sequence (Q9NR97 27-1041): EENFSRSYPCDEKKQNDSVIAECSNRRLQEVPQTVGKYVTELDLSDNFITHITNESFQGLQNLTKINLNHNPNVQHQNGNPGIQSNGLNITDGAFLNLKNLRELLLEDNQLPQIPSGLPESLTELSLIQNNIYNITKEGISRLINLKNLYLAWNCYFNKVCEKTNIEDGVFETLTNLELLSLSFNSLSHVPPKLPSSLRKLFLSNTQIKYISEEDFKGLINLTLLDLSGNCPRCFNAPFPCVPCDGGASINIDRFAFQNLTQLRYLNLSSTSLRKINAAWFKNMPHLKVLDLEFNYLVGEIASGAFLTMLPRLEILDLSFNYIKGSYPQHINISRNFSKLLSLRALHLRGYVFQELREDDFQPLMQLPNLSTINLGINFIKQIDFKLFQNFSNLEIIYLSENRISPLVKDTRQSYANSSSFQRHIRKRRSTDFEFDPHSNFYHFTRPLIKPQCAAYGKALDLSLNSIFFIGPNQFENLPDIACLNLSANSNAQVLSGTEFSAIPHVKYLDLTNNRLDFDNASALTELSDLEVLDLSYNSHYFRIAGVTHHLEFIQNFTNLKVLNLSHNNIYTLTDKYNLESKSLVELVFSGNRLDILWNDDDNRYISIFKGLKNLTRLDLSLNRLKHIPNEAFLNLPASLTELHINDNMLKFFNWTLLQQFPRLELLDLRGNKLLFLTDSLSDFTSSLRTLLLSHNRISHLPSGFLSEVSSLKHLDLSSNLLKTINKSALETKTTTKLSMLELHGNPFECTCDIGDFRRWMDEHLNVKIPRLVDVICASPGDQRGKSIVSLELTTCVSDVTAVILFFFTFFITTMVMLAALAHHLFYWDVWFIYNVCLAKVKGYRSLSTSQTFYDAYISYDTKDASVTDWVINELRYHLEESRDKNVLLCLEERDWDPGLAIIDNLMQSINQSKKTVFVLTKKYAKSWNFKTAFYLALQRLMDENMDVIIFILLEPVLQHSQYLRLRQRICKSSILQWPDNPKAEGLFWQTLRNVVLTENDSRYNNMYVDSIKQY
Experimental: as §1, §2

[3] = test system: interferon-stimulated responsive elements (ISRE); assay: Activation of ISRE promoter elements by conditioned media from PBMC (HEK-ISREluc); type: cell-based, human; settings: Homo sapiens; conditioned media from PBMC transferred to HEK-ISREluc cells, 24 hours; lowest effective concentration; read-out: PBMC LEC
Experimental: The potential of compounds to induce IFN-I was also evaluated by measuring the activation of interferon-stimulated responsive elements (ISRE) by conditioned media from PBMC. The ISRE element of sequence […] (SEQ. ID NO:1) is highly responsive to the STAT1-STAT2-IRF 9 transcription factor, activated upon binding of IFN-I to their receptor IFNAR (Clontech, PT3372-5W). […] A HEK293 cell line stably transfected with pISRE-Luc (HEK-ISREluc) was established to profile of the conditioned PBMC cell culture media.
Briefly, PBMCs were prepared from buffy coats of at least two donors using a standard Ficoll centrifugation protocol. Isolated PBMCs were resuspended in RPMI medium supplemented with 10% human AB serum and 2×10^5 cells/well were dispensed into 384-well plates containing compounds (70 μL total volume). After overnight incubation, 10 μL of supernatant was transferred to 384-well plates containing 5×10^3 HEK-ISREluc cells/well in 30 μL (plated the day before). Following 24 hours of incubation, activation of the ISRE elements was measured by assaying luciferase activity using 40 μL/well Steady Lite Plus substrate (Perkin Elmer) and measured with ViewLux ultraHTS microplate imager (Perkin Elmer). The stimulating activity of each compound on the HEK-ISREluc cells was reported as LEC value, defined as the compound concentration applied to the PBMCs resulting in a luciferase activity at least two fold above the standard deviation of the assay. The LEC in turn indicates the degree of ISRE activation on transfer of a defined amount of PBMC culture medium. Recombinant interferon α-2a (Roferon-A) was used as a standard control compound.

Row | SMILES | TLR7 LEC [1] | TLR8 LEC [2] | minimal effective concentration [3]
1 | CCCCNc1nc(N)nc2ccn(Cc3ccccc3-c3ccccc3)c12 [Compound 7] | 0.61 µM | >25 µM | 0.8 µM
2 | CCCCNc1nc(N)nc2ccn(CCCC)c12 [Compound 8] | 0.49 µM | 1.7 µM | 0.15 µM
3 | CCCCNc1nc(N)nc2ccn(CCC)c12 [Compound 9] | 0.53 µM | 2.1 µM | 0.22 µM
4 | CCCCNc1nc(N)nc2ccn(CCc3ccccc3)c12 [Compound 11] | 1.5 µM | 3.5 µM | 0.56 µM
5 | CCCCNc1nc(N)nc2ccn(Cc3ccccc3Cl)c12 [Compound 13] | 0.80 µM | >25 µM | 0.89 µM
6 | CCCC[C@@H](CO)Nc1nc(N)nc2ccn(Cc3cccnn3)c12 [Compound 14] | 0.52 µM | 6.57 µM | 0.01 µM
7 | CCC[C@@H](CO)Nc1nc(N)nc2ccn(Cc3cccnn3)c12 [Compound 15] | 5.84 µM | >25 µM | 0.1 µM
8 | CCCCNc1nc(N)nc2ccn(Cc3ccc(F)c(Cl)c3)c12 [Compound 16] | 0.89 µM | >25 µM | 0.6 µM
9 | CCC[C@@H](CO)Nc1nc(N)nc2ccn(Cc3ccccc3)c12 [Compound 17] | 0.07 µM | 12.5 µM | 0.01 µM
10 | CCCCNc1nc(N)nc2ccn(C(C)C)c12 [Compound 19] | 2.5 µM | 7.06 µM | 0.62 µM
11 | CCCCNc1nc(N)nc2ccn(Cc3cc(C)on3)c12 [Compound 20] | 0.14 µM | 1.3 µM | 0.02 µM
12 | CCC[C@@H](CCO)Nc1nc(N)nc2ccn(Cc3ccccc3)c12 [Compound 21] | 0.009 µM | 7.4 µM | 0.0007 µM
13 | CCC[C@@H](CO)Nc1nc(N)nc2ccn(Cc3ccccn3)c12 [Compound 22] | 0.48 µM | 9.2 µM | 0.02 µM
14 | CCCNc1nc(N)nc2ccn(Cc3ccccc3)c12 [Compound 23] | 0.83 µM | >25 µM | 0.27 µM
15 | CCC[C@@H](CCO)Nc1nc(N)nc2ccn(Cc3ccccn3)c12 [Compound 24] | 0.02 µM | 6.47 µM | 0.0007 µM
16 | CCCC[C@@H](CCO)Nc1nc(N)nc2ccn(Cc3ccccn3)c12 [Compound 25] | 0.01 µM | 2.84 µM | 0.001 µM
17 | CCC[C@@H](CO)Nc1nc(N)nc2ccn(CC(C)C)c12 [Compound 27] | 0.15 µM | 0.85 µM | 0.17 µM
18 | CCCC[C@@H](CCO)Nc1nc(N)nc2ccn(CC(C)C)c12 [Compound 28] | 0.11 µM | 1.1 µM | 0.03 µM
19 | CCCCCNc1nc(N)nc2ccn(Cc3ccccc3)c12 [Compound 29] | 0.15 µM | >25 µM | 0.04 µM
20 | CCC[C@@H](CCO)Nc1nc(N)nc2ccn(CC(C)C)c12 [Compound 30] | 0.16 µM | 0.67 µM | 0.05 µM
21 | CCC[C@H](CO)Nc1nc(N)nc2ccn(Cc3ccccc3)c12 [Compound 31] | 0.22 µM | >25 µM | 0.16 µM
22 | CC(C)CNc1nc(N)nc2ccn(Cc3ccccc3)c12 [Compound 32] | 0.91 µM | >25 µM | 0.52 µM
23 | CCCC(C)Nc1nc(N)nc2ccn(Cc3ccccc3)c12 (stereo not drawn) [Compound 33] | 0.03 µM | >25 µM | 0.04 µM
24 | COCCNc1nc(N)nc2ccn(Cc3ccccc3)c12 [Compound 34] | 0.91 µM | >25 µM | 0.54 µM
25 | CCNc1nc(N)nc2ccn(Cc3ccccc3)c12 [Compound 35] | 1.49 µM | >25 µM | 0.7 µM
26 | Nc1nc(NCCCO)c2c(ccn2Cc2ccccc2)n1 [Compound 36] | 1.06 µM | >25 µM | 0.59 µM
27 | CCCC[C@@H](CCO)Nc1nc(N)nc2ccn(Cc3ccccc3)c12 [Compound 37] | 0.005 µM | >25 µM | 0.007 µM
28 | CC[C@H](C)[C@@H](CO)Nc1nc(N)nc2ccn(Cc3ccccc3)c12 [Compound 38] | 0.54 µM | >25 µM | 0.63 µM
